Results reported in patent publication US5391540A, “Substituted pyridine compounds” (Rohm and Haas Company, priority 1993, dated 1995).

Key:
Assay type in all cases: in vivo
Annual Bluegrass = assay: Pre-emergent herbicidal activity (Table A); settings: pre-emergence, Anbg, 11.2 kg/ha, 10-14 days, read-out: herbicidal rating (% inhibition)
In short: (§1)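 Seeds were sown on compacted topsoil and covered with soil into which test compound (in acetone or water carrier) had been mixed at 11.2 kg/ha. Pans were kept watered on a greenhouse bench, and percent inhibition was scored as a rating about 10-14 days (usually 11) after treatment.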

Wild Buckwheat = assay: Pre-emergent herbicidal activity (Table A); settings: Fallopia convolvulus, pre-emergence, Wibw, 11.2 kg/ha, 10-14 days, read-out: herbicidal rating (% inhibition)
In short: as §1

Indian Mustard = assay: Pre-emergent herbicidal activity (Table A); settings: Brassica juncea, pre-emergence, Inmu, 11.2 kg/ha, 10-14 days, read-out: herbicidal rating (% inhibition)
In short: as §1

Seedling Johnsongrass = assay: Pre-emergent herbicidal activity (Table A); settings: Sorghum halepense, pre-emergence, Sejg, 11.2 kg/ha, 10-14 days, read-out: herbicidal rating (% inhibition)
In short: as §1

Cotz = assay: plant injury after spraying emerged plants (Table D); set-up: scale not given here
Text: (§2) Topsoil (silt loam) is sieved through a screen having 1.27 cm openings. In some of the tests the soil was mixed with fertilizer (1225 g/cu. m of 12/5/9 containing isobutylidene diurea), while in other tests the fertilizer was omitted. This mixture is steam sterilized and then placed in aluminum pans 6.985 cm deep having ten holes in the bottom each 0.635 cm in diameter. The soil mixture is compacted to a depth of 1.27 cm. from the top of the pan. A predetermined number of seeds of each of several dicotyledonous and monocotyledonous annual plant species and/or vegetative propagules for the perennial plant species are placed on the soil and pressed into the soil surface. The seeds and/or vegetative propagules are covered with 1.27 cm of a mixture of 50% topsoil and 50% of a mixture of Canadian sphagnum peat moss, vermiculite and a wetting agent. The pans are then placed on a capillary mat on a greenhouse bench and subirrigated as needed. After the plants reach the desired stage (9 to 14 days, 1 to 3 true leaf stage), each pan (except the control pans) is removed to a spraying chamber and sprayed by means of an atomizer, operating at a spray pressure of 170.3 kPa ([…]) at the application rates noted in Table D. In the spray solution is an amount of an emulsifying agent mixture (35% butylamine salt of dodecylbenzenesulfonic acid and 65% tall oil condensed with ethylene oxide in the ratio of 11 mols of ethylene oxide/mol of tall oil) to give a spray solution or suspension. The spray solution or suspension contains a sufficient amount of the candidate chemical in order to give application rates of the active ingredient corresponding to those shown in Table D below while applying a total amount of solution or suspension equivalent to 1870 L/Ha (200 gallons/acre). The pans are returned to the greenhouse and watered as before and the injury to the plants as compared to the control pans is observed at approximately 10-14 days (usually 11 days).
(§3) In the following Table D the legends used to identify the plant species are the same as those used in the preceding Table B.

Rape = assay: as above; set-up: scale not given here
Text: as §2, §3

Jiwe = assay: as above; set-up: scale not given here
Text: as §2, §3

Vele = assay: as above; set-up: scale not given here
In short: (§4)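 Seeds or perennial propagules were pressed onto steam-sterilized sieved silt loam topsoil and covered with 1.27 cm of a 50:50 topsoil and peat moss/vermiculite/wetting agent mix. Pans were kept on a greenhouse bench over capillary mat and subirrigated as needed.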

Lacg = assay: as above; set-up: scale not given here
In short: as §4

Prmi = assay: as above; set-up: scale not given here
In short: as §4

Hese = assay: as above; set-up: scale not given here
In short: as §4

Wibw = assay: as above; set-up: scale not given here
In short: as §4

| SMILES | inhibition at 11200 g/ha (Annual Bluegrass) [%] | inhibition at 11200 g/ha (Wild Buckwheat) [%] | inhibition at 11200 g/ha (Indian Mustard) [%] | inhibition at 11200 g/ha (Seedling Johnsongrass) [%] | plant injury rating, Cotz (Cotz; 0.0701 kg/ha) | plant injury rating, Cotz (Cotz; 0.2803 kg/ha) | plant injury rating, Cotz (Cotz; 5.6050 kg/ha) | plant injury rating, Rape (Rape; 0.0701 kg/ha) | plant injury rating, Rape (Rape; 0.2803 kg/ha) | plant injury rating, Rape (Rape; 5.6050 kg/ha) | plant injury rating, Jiwe (Jiwe; 0.0701 kg/ha) | plant injury rating, Jiwe (Jiwe; 0.2803 kg/ha) | plant injury rating, Jiwe (Jiwe; 5.6050 kg/ha) | plant injury rating, Vele (Vele; 0.0701 kg/ha) | plant injury rating, Vele (Vele; 0.2803 kg/ha) | plant injury rating, Vele (Vele; 5.6050 kg/ha) | plant injury rating, Lacg (Lacg; 0.2803 kg/ha) | plant injury rating, Lacg (Lacg; 5.6050 kg/ha) | plant injury rating, Prmi (Prmi; 0.0701 kg/ha) | plant injury rating, Prmi (Prmi; 0.2803 kg/ha) | other results |
| --- | --- | --- | --- | --- | --- | --- | --- | --- | --- | --- | --- | --- | --- | --- | --- | --- | --- | --- | --- | --- | --- |
| COC(=O)c1c(OC)nc(C(F)(F)F)c(-c2nnc(C)o2)c1CC(C)C [Compound 103, 3-pyridinecarboxylic acid, 2-methoxy-5-(5-methy1-1,3,4-oxadiazo1-2-yl)-4-(2-methylpropyl)-6-(trifluoromethyl)-, methyl ester] | 75 to 100 | 75 to 100 | 75 to 100 | 75 to 100 | 0 | 0 | 0 | 0 | 0 | 3 | 0 | 0 | 2 | 0 | 0 | 2 | 0 | 2 | 0 | 0 | plant injury rating, Cotz (Cotz; 1.1219 kg/ha): 0; plant injury rating, Rape (Rape; 1.1219 kg/ha): 1; plant injury rating, Jiwe (Jiwe; 1.1219 kg/ha): 2; plant injury rating, Vele (Vele; 1.1219 kg/ha): 0; plant injury rating, Lacg (Lacg; 0.0701 kg/ha): 0; plant injury rating, Lacg (Lacg; 1.1219 kg/ha): 0; plant injury rating, Prmi (Prmi; 1.1219 kg/ha): 0; plant injury rating, Prmi (Prmi; 5.6050 kg/ha): 0; plant injury rating, Hese (Hese; 0.0701 kg/ha): 0; plant injury rating, Hese (Hese; 0.2803 kg/ha): 0; plant injury rating, Hese (Hese; 1.1219 kg/ha): 1; plant injury rating, Hese (Hese; 5.6050 kg/ha): 3; plant injury rating, Wibw (Wibw; 0.0701 kg/ha): 0; plant injury rating, Wibw (Wibw; 0.2803 kg/ha): 0; plant injury rating, Wibw (Wibw; 1.1219 kg/ha): 1; plant injury rating, Wibw (Wibw; 5.6050 kg/ha): 2 |
| COC(=O)c1c(OC)nc(C(F)(F)F)c(C2SCCS2)c1CC(C)C [Compound 93, 3-pyridinecarboxylic acid, 5-(1,3-dithiolan-2-yl)-2-methoxy-4-(2-methylpropyl)-6-(trifluoromethyl)-, methyl ester] | 75 to 100 | 75 to 100 | 75 to 100 | 75 to 100 | 0 | 0 | 2 | 0 | 2 | 3 | 2 | 2 | 3 | 0 | 0 | 3 | 2 | 3 | 0 | 0 | plant injury rating, Cotz (Cotz; 1.1210 kg/ha): 0; plant injury rating, Rape (Rape; 1.1210 kg/ha): 3; plant injury rating, Jiwe (Jiwe; 1.1210 kg/ha): 3; plant injury rating, Vele (Vele; 1.1210 kg/ha): 2; plant injury rating, Lacg (Lacg; 1.1210 kg/ha): 3; plant injury rating, Prmi (Prmi; 1.1210 kg/ha): 0; plant injury rating, Prmi (Prmi; 5.6050 kg/ha): 0; plant injury rating, Hese (Hese; 0.0701 kg/ha): 1; plant injury rating, Hese (Hese; 0.2803 kg/ha): 3; plant injury rating, Hese (Hese; 1.1210 kg/ha): 3; plant injury rating, Hese (Hese; 5.6050 kg/ha): 3; plant injury rating, Wibw (Wibw; 0.0701 kg/ha): 0; plant injury rating, Wibw (Wibw; 0.2803 kg/ha): 0; plant injury rating, Wibw (Wibw; 1.1210 kg/ha): 0; plant injury rating, Wibw (Wibw; 5.6050 kg/ha): 0 |
| COC(=O)c1c(OC)nc(C(F)(F)F)c(C(=O)NCCCBr)c1CC(C)C [Compound 97, 3-pyridinecarboxylic acid, 5-[[(3-bromopropyl)amino)carbonyl]-2-methoxy-4-(2-methylpropyl)-6-(trifluoromethyl)-, methyl ester] | 75 to 100 | 50 to 74 | 75 to 100 | 75 to 100 | 0 | 0 | 0 | 0 | 0 | 0 | 0 | 0 | 1 | 0 | 0 | 0 | 0 | 0 | 0 | 0 | plant injury rating, Cotz (Cotz; 1.1210 kg/ha): 0; plant injury rating, Rape (Rape; 1.1210 kg/ha): 0; plant injury rating, Jiwe (Jiwe; 1.1210 kg/ha): 0; plant injury rating, Vele (Vele; 1.1210 kg/ha): 0; plant injury rating, Lacg (Lacg; 0.0701 kg/ha): 0; plant injury rating, Lacg (Lacg; 1.1210 kg/ha): 2; plant injury rating, Prmi (Prmi; 1.1210 kg/ha): 0; plant injury rating, Prmi (Prmi; 5.6050 kg/ha): 0; plant injury rating, Hese (Hese; 0.0701 kg/ha): 0; plant injury rating, Hese (Hese; 0.2803 kg/ha): 0; plant injury rating, Hese (Hese; 1.1210 kg/ha): 0; plant injury rating, Hese (Hese; 5.6050 kg/ha): 0; plant injury rating, Wibw (Wibw; 0.0701 kg/ha): 0; plant injury rating, Wibw (Wibw; 0.2803 kg/ha): 0; plant injury rating, Wibw (Wibw; 1.1210 kg/ha): 0; plant injury rating, Wibw (Wibw; 5.6050 kg/ha): 0 |
